≈ marks a conversion by molar mass, not a printed value.

Here are results for one compound from patent EP0420552A2, “New antifungal antibiotic, and the production and uses of same” (ZAIDAN HOJIN BISEIBUTSU KAGAKU KENKYU KAI, priority 1989, dated 1991).

One data set concerns Candida Yu-1200. The data set is described as follows: MIC by standard serial dilution method on nutrient agar. Type of data set: cell-based. The following applies: YU1200, nutrient agar medium containing 1% glucose (pH 7.0), 27°C, 42 hours, read-out: Minimum inhibitory concentrations. Here is the method:
(§1) The minimum inhibitory concentrations (MIC., mcg/ml) of dexylosylbenanomicin A against a variety of fungi were determined by a standard serial dilution method on a nutrient agar medium containing 1% glucose (pH 7.0) after incubation at 27°C for 42 hours and are shown in Table 1 below.

Data set [1] relates to Cryptococcus neoformans F-10. The description is as above. As to conditions: F10, nutrient agar medium containing 1% glucose (pH 7.0), 27°C, 42 hours, read-out: Minimum inhibitory concentrations. Type of data set: cell-based. The procedure: as §1
A further data set has as its system Aspergillus niger F-16. The description is as above. Type of data set: cell-based. The following applies: F16, nutrient agar medium containing 1% glucose (pH 7.0), 27°C, 42 hours, read-out: Minimum inhibitory concentrations. Here is the method:
as §1

The subject of data set [2] is Candida pseudotropicalis F-2. Described as above. Type of data set: cell-based. The following applies: Kluyveromyces marxianus, F2, nutrient agar medium containing 1% glucose (pH 7.0), 27°C, 42 hours, read-out: Minimum inhibitory concentrations. The procedure: as §1
A further data set has as its system Candida albicans 3147. The description is as above. Type of data set: cell-based. The following applies: nutrient agar medium containing 1% glucose (pH 7.0), 27°C, 42 hours, read-out: Minimum inhibitory concentrations. The procedure: as §1
In data set [3] the test system is Trichophyton mentagrophytes (883). The data set is described as above. Type of data set: cell-based. As to conditions: nutrient agar medium containing 1% glucose (pH 7.0), 27°C, 42 hours, read-out: Minimum inhibitory concentrations. The procedure:
as §1

Another data set deals with Candida tropicalis F-1. Described as above. Type of data set: cell-based. As to conditions: F1, nutrient agar medium containing 1% glucose (pH 7.0), 27°C, 42 hours, read-out: Minimum inhibitory concentrations. Here is the method: as §1
For data set [4], the system named is Saccharomyces cerivisiae F-7. Described as above. Type of data set: cell-based. The following applies: F7, nutrient agar medium containing 1% glucose (pH 7.0), 27°C, 42 hours, read-out: Minimum inhibitory concentrations. Here is the method: as §1
For the next data set, the system named is Pellicularia sasakii. The description is as above. Type of data set: cell-based. As to conditions: nutrient agar medium containing 1% glucose (pH 7.0), 27°C, 42 hours, read-out: Minimum inhibitory concentrations. The procedure:
as §1

The test system of the next data set is Candida krusei F-5. The description is as above. As to conditions: Pichia kudriavzevii, F5, nutrient agar medium containing 1% glucose (pH 7.0), 27°C, 42 hours, read-out: Minimum inhibitory concentrations. Type of data set: cell-based. The procedure: as §1
The test system of data set [5] is Trichophyton asteroides 429. Described as above. Type of data set: cell-based. The following applies: nutrient agar medium containing 1% glucose (pH 7.0), 27°C, 42 hours, read-out: Minimum inhibitory concentrations. The procedure:
as §1

The subject of a further data set is Pyricularia oryzae. The data set is described as follows: microbe, parasite or virus in culture. Type of data set: cell-based. The following applies: 42 h, pH 7, read-out: Minimum inhibitory concentrations.
Data set [6] is described as follows: Solubility in organic solvents.
In the next data set the test system is Cochliobolus miyabeanus. As to the kind of experiment: MIC by standard serial dilution method on nutrient agar. Type of data set: cell-based. As to conditions: Bipolaris oryzae, 42 h, pH 7, read-out: Minimum inhibitory concentrations.
Data set [7] is described as follows: Acute toxicity in mice upon intravenous administration. Type of data set: in vivo. The following applies: ICR mice (female, 4-week old, body weight of 19 to 21 g). The procedure:
Dexylosylbenanomicin A is of low toxicity to mammals, as it was shown that for estimation of acute toxicity in mice upon intravenous administration, dexylosylbenanomicin A was administered via the intravenous route to ICR mice (female, 4-week old, body weight of 19 to 21 g), the mice tolerated a dosage of 300 mg/kg of this new antibiotic.

The test system of a further data set is Xanthomonas citri. As to the kind of experiment: MIC by standard serial dilution method on nutrient agar. As to conditions: 42 h, pH 7, read-out: Minimum inhibitory concentrations. Type of data set: cell-based.
In a further data set the test system is Xanthomonas oryzae. The data set is described as follows: microbe, parasite or virus in culture. Type of data set: cell-based. As to conditions: 42 h, pH 7, read-out: Minimum inhibitory concentrations.

As for `COc1cc(O)c2c(c1)C(=O)c1c(cc3c(c1O)-c1c(cc(C)c(C(=O)N[C@H](C)C(=O)O)c1O)[C@H](O[C@@H]1O[C@H](C)[C@H](O)[C@H](O)[C@H]1O)[C@H]3O)C2=O` [dexylosylbenanomicin A], the MIC was 6.25 mg/L (≈ 8.98 µM) with Candida Yu-1200; 12.5 mg/L (≈ 18 µM) in data set [1]; 50 mg/L (≈ 71.9 µM) in the data set on Aspergillus niger F-16; 3.13 mg/L (≈ 4.5 µM) in data set [2]; 12.5 mg/L (≈ 18 µM) in the data set with Candida albicans 3147; greater than 25 mg/L in data set [3]. Also, the MIC was 12.5 mg/L (≈ 18 µM) with Candida tropicalis F-1; 3.13 mg/L (≈ 4.5 µM) in [4]; 25 mg/L (≈ 35.9 µM) in the data set with Pellicularia sasakii; 50 mg/L (≈ 71.9 µM) in the data set with Candida krusei F-5; greater than 25 mg/L in data set [5]; 50 mg/L (≈ 71.9 µM) in the data set with Pyricularia oryzae. Also, the MIC in the data set with Cochliobolus miyabeanus was greater than 25 mg/L; in the data set on Xanthomonas citri, greater than 100 mg/L; in the data set with Xanthomonas oryzae it was 100 mg/L (≈ 144 µM). Moreover, the Solubility entry in [6] (in chloroform, ethyl acetate, acetone and methanol) is “Sparingly soluble”; in [6] (in dimethyl sulfoxide and N,N-dimethylformamide) it was “soluble”. The “acute toxicity: tolerated dosage” value in data set [7] amounted to 300 mg/kg.
